The source of these data is patent US20230095912A1, “Composition and Methods for Selective Degradation of Engineered Proteins” (Celgene Corporation, priority 2021, published 2023).

A value given as a limit tells only on which side of the number the result lay.

For experiment [1], the system named is IKZF1 ZNF2_3 Q1F tagged CD19 CAR. Put plainly: Jurkat reporter assay (tdTomato), signaling of Q1F-tagged CAR after degradation. It counts as cell-based, human. As to conditions: 1 mM pre-treatment 12 hours, co-culture with CD19-expressing K562 8 hours. On the procedure:
A lentiviral vector encoding ZNF2_3 Q1F or Q1F/G6N tagged CD19 CAR was transduced into the reporter cell line. […] Levels of tdTomato in the form of the overall percent of positive cells (FIG. 12A), as well as mean fluorescence intensity (MFI, FIG. 12B) were assessed by flow cytometry. Degradation of CARs containing the ZNF2_3 Q1F degron decreased signaling by around 30% using 1 mM Compound C and by around 75% using Compound B; this relative difference correlates with the depth of degradation seen for each. Further, the reduction in activity depends upon having an intact G-motif, as the G6N mutation prevents inhibition.
(In general: A reporter such as luciferase makes a cellular process visible.)

Experiment [2] has as its system IKZF1 ZNF2_3 Q1F tagged anti-ROR1 CAR. Put plainly: CAR surface levels in primary T cells, flow cytometry. It is filed as cell-based, human. Conditions: dose titration. The protocol:
(§1) The ability to use compounds to titrate primary CAR T effector function by degrading IKZF1 ZNF2_3 Q1F tagged anti-ROR1 CAR (FIG. 13A) was evaluated. The CAR included similar transmembrane, costimulatory, and signaling domains as the CD19 CAR, but with an anti-ROR1 scFv. A lentiviral vector encoding ZNF2_3 Q1F tagged or untagged anti-ROR1 CAR was transduced into activated primary T cells. Transduced cells were expanded for 10 days in media supplemented with IL2, IL7, and IL15, then frozen. Prior to the experiment, cells were thawed and allowed to rest in media with a dose titration of Compound C or without drug. […] To determine the impacts of CAR degradation on CAR T activity, cells were then co-cultured with a Nuclight red labeled H-1975 ROR1 expressing target cell line at a 1:4 effector:target cell ratio. Co-cultures were placed in the Incucyte for 24 hours to monitor tumor killing via Nuclight red signal (FIG. 14A), and supernatants were collected to measure proinflammatory cytokine production by MSD (FIG. 14B-14D; IL-2, TNFα, and IFNγ).
In general terms: A flow cytometer gives signals particle by particle.

In experiment [3] the test system is H-1975 ROR1 expressing target cell line. Briefly: Primary CAR T effector function (tumor killing, cytokine production) in co-culture. As to conditions: 1:4 effector:target, 24 hours, different concentrations. It counts as cell-based. The protocol: as §1
In experiment [4] the target is T1, ePL-tagged Aiolos (Homo sapiens, UniProt Q96SW2+Q9UKT9).
T1 construct: expressed in transfected cells
T1 sequence (Q9UKT9 whole entry): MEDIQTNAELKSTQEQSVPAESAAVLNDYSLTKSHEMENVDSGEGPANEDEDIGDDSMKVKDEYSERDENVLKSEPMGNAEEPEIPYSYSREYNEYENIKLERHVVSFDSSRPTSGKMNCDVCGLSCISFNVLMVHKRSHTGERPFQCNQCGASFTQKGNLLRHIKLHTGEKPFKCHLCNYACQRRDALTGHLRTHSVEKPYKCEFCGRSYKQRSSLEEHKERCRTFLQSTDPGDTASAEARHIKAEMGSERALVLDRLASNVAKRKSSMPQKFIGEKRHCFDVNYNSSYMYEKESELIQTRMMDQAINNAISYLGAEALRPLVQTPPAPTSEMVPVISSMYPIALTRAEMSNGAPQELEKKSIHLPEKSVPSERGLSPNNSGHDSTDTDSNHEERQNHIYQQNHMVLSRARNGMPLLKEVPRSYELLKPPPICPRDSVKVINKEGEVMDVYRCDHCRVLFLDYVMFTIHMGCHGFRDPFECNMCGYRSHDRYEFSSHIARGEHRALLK
T1 sequence (Q96SW2 whole entry): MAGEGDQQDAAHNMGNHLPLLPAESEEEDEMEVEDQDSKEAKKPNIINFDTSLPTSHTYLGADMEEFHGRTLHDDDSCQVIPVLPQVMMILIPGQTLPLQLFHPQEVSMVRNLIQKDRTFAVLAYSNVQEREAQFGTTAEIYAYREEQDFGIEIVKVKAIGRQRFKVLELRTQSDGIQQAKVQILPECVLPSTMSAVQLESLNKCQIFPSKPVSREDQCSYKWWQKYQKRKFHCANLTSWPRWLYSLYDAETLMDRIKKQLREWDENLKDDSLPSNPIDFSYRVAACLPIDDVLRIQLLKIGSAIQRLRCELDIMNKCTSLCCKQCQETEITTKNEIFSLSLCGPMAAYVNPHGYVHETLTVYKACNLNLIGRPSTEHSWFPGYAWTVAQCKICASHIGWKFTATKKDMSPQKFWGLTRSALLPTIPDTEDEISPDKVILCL
T1 sequence (Q16531 whole entry partner): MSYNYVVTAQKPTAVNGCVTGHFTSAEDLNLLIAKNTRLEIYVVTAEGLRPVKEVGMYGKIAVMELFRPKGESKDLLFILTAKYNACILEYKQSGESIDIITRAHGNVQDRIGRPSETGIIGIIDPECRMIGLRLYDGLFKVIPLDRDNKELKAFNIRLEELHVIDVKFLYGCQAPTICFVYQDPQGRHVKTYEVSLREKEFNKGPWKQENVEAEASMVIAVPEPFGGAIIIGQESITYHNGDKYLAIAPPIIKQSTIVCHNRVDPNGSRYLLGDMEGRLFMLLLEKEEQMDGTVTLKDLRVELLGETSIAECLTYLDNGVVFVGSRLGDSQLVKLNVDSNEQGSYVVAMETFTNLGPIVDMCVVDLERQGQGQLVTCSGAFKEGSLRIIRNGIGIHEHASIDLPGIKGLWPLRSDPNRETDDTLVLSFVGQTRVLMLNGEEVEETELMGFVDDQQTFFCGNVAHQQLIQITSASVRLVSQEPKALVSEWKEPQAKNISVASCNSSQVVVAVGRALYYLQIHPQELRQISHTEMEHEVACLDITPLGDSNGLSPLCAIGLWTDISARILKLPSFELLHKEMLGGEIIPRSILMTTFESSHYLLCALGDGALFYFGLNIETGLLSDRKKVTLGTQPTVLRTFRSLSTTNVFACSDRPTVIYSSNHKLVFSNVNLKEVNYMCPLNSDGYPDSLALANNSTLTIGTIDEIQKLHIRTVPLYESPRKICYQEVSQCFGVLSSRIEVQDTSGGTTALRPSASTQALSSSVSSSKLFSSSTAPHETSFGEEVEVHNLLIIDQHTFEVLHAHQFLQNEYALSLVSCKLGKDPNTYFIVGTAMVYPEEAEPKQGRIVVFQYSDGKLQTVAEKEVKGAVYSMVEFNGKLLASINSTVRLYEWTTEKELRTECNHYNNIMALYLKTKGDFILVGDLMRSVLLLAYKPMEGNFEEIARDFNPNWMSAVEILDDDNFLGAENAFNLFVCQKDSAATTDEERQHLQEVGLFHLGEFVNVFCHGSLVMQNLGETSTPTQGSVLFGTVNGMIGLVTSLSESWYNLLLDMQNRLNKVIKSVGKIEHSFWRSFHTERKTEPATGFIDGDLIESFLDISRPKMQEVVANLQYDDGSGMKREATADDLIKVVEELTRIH
Briefly: ePL-tagged substrate degradation in DF15 multiple myeloma cells. It is filed as cell-based. The protocol:
(§2) DF15 multiple myeloma cells stably expressing ePL-tagged Aiolos, Ikaros, or GSPT1, and MDS-L cells stably expressing ePL-tagged CK1a were generated via lentiviral infection with pLOC-ePL-Aiolos (or Ikaros, GSPT1, or CK1a). […] Compounds were dispensed by an acoustic dispenser (ATS acoustic transfer system from EDC Biosystems) into a 384-well plate in a 10-point dose response curve using 3-fold dilutions starting at 10 μM and going down to […]. Then, 25 μL of media (RPMI-1640+10% heat inactivated FBS+25 mM Hepes+1 mM Na pyruvate+1× NEAA+1×Pen Strep Glutamine) containing 5000 of DF15 or MSD-L cells was dispensed per well. Assay plates were incubated at 37° C. with 5% CO2 for 4 hours except 20 hours for GSPT1. After incubation, 25 μL of the InCELL Hunter detection reagent working solution (DiscoverX, catalogue no. 96-0002, Fremont, Calif.) was added to each well and incubated at room temperature for 60 min protected from light. After 60 min, luminescence was read on an Envision or PHERAstar luminescence reader.
(§3) All substrate degradation curves were processed and evaluated using ActivityBase (IDBS), a data analysis software package. Ymin is minimum percent protein remaining.

Experiment [5] deals with T2, ePL-tagged GSPT1 (Homo sapiens, UniProt P15170+Q96SW2).
T2 construct: expressed in transfected cells
T2 sequence (P15170 whole entry): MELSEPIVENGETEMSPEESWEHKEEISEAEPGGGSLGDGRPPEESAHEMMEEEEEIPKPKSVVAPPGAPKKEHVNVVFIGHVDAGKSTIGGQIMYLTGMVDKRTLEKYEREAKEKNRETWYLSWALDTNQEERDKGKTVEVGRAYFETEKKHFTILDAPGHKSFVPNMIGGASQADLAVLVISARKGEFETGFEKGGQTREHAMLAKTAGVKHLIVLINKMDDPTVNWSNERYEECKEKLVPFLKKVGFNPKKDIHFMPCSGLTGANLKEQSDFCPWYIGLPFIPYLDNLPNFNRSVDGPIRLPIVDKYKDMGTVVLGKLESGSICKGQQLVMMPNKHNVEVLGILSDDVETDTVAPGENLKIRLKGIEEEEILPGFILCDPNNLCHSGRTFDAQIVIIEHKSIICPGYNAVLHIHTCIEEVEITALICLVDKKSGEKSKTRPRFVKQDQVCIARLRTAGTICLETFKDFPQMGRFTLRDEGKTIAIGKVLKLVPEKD
T2 sequence (Q96SW2 whole entry): as the sequence (Q96SW2 whole entry) above
T2 sequence (Q16531 whole entry partner): as the sequence (Q16531 whole entry partner) above
The description is as above. It is filed as cell-based. The protocol: as §2
(§4) To determine the EC50 value of a compound for the degradation of a given substrate (concentration of compound that achieves half the maximum degradation observed), a four-parameter logistic model (sigmoidal dose—response model) (FIT=(A+{(B−A)/1+[(C/x)D]})) where C is the inflection point (EC50), D is the […], and A and B are the low and high limits of the fit, respectively) was used. All substrate degradation curves were processed and evaluated using ActivityBase (IDBS), a data analysis software package. Ymin is minimum percent protein remaining.

Experiment [6] deals with T3, ePL-tagged Ikaros (Homo sapiens, UniProt Q13422+Q96SW2).
T3 construct: expressed in transfected cells
T3 sequence (Q13422 whole entry): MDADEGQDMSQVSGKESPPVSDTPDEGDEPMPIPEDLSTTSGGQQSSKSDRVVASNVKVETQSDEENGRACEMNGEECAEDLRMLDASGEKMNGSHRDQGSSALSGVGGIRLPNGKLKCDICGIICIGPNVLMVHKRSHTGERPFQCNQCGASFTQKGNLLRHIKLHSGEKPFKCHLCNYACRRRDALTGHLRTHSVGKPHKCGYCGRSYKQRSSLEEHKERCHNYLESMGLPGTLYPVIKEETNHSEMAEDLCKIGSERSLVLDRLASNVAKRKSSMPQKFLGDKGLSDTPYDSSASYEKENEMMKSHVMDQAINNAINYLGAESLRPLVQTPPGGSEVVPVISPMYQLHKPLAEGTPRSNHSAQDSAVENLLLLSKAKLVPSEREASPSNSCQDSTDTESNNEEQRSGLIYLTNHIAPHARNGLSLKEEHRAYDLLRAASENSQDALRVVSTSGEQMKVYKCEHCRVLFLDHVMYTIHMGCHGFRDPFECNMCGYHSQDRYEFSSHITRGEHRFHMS
T3 sequence (Q96SW2 whole entry): as the sequence (Q96SW2 whole entry) above
T3 sequence (Q16531 whole entry partner): as the sequence (Q16531 whole entry partner) above
Described as above. It is filed as cell-based. On the procedure: as §2, §4

The target in experiment [7] is T4, ePL-tagged CK1a (Homo sapiens, UniProt P48729+Q96SW2).
T4 construct: expressed in transfected cells
T4 sequence (P48729 whole entry): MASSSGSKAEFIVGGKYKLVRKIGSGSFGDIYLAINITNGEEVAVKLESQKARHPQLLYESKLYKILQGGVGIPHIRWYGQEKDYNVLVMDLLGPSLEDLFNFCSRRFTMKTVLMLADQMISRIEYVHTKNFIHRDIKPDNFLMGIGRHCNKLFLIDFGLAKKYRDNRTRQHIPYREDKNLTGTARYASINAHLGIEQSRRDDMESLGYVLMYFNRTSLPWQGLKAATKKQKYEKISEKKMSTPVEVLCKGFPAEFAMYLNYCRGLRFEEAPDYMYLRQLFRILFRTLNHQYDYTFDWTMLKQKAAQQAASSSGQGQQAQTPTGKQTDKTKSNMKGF
T4 sequence (Q96SW2 whole entry): as the sequence (Q96SW2 whole entry) above
T4 sequence (Q16531 whole entry partner): as the sequence (Q16531 whole entry partner) above
Briefly: ePL-tagged substrate degradation in MDS-L cells. It counts as cell-based. The protocol: as §2, §4

The target in experiment [8] is T5, Helios (Homo sapiens, UniProt Q96SW2+Q9UKS7).
T5 construct: endogenous in cells; host or cells: Jurkat/Helios/HiBit cells (CRISPR/Cas9 knock-in)
T5 sequence (Q9UKS7 whole entry): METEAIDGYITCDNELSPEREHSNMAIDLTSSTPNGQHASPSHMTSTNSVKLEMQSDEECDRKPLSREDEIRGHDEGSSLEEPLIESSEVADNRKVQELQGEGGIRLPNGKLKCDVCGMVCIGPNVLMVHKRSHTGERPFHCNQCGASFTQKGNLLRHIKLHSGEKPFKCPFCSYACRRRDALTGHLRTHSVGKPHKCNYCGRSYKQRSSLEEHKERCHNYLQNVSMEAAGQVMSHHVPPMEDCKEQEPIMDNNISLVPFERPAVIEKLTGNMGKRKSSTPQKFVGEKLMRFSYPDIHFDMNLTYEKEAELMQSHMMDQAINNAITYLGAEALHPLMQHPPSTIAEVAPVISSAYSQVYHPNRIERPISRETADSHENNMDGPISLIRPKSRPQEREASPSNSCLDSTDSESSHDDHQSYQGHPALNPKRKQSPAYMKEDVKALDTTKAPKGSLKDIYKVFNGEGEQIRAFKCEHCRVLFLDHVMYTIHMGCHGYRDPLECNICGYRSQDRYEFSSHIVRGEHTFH
T5 sequence (Q96SW2 whole entry): as the sequence (Q96SW2 whole entry) above
T5 sequence (Q16531 whole entry partner): as the sequence (Q16531 whole entry partner) above
Briefly: Helios HiBit degradation in Jurkat cells. It is filed as cell-based. The protocol:
For Helios, a stable Jurkat cell line was engineered using CRISPR/Cas9 to insert an in-frame HiBit tag into the carboxy-terminal reading frame of the IKZF2 gene. Test compounds were transferred to 1536 well plates using an acoustic dispenser, and Jurkat/Helios/HiBit cells in DMEM/10% FCS were plated at 10,000 cells/well in a final volume of 5 ul. Cells were incubated at 37C, 95% RH for 18 hr. Luciferase activity was measured by adding 2 ul/well of Nano-Glo reagent (Promega), incubating at RT for 30 min, and reading luminescence on a microtiter plate reader.
as §3
In general terms: The HiBiT peptide binds its large partner to form an active luciferase.

Regarding `Cc1ncccc1N1CCN(Cc2ccc3c(c2)CN(C2CCC(=O)NC2=O)C3=O)CC1` (stereo not shown) [Compound C, 3-(5-((4-(2-methylpyridin-3-yl)piperazin-1-yl)methyl)-1-oxoisoindolin-2-yl)piperidine-2,6-dione], the “decrease of signaling (tdTomato reporter)” value in experiment [1] was “around 30%”. The “surface levels of ZNF2_3 Q1F-tagged CAR” value in experiment [2] was “could be titrated”. In addition, in experiment [3], the “effector function of primary CAR T cells (killing and cytokine production)” value is recorded as “could be titrated”. In addition, the “Ymin (%)” value stood at 83% in experiment [4]; 89% in experiment [5]; 92% in experiment [6]; 98% in experiment [7]; 86% in experiment [8]. Further, the DC50 in experiment [4] (Aiolos, DF15 cells, 4 hours, read-out: EC50 (the source's name)) is over 10 µM; in experiment [5] (GSPT1, DF15 cells, 20 hours, read-out: EC50 (the source's name)), over 10 µM; in experiment [6] (Ikaros, DF15 cells, 4 hours, read-out: EC50 (the source's name)), over 10 µM; in experiment [7] (CK1a, MDS-L cells, 4 hours, read-out: EC50 (the source's name)), over 10 µM; in experiment [8] (Helios, Jurkat/Helios/HiBit cells, 18 hr, read-out: EC50 (the source's name)), over 10 µM.
